From article PMC6831664, “Synthesis of new isoquinoline-base-oxadiazole derivatives as potent inhibitors of thymidine phosphorylase and molecular docking study” (Scientific Reports, 2019)

Target: thymidine phosphorylase (Escherichia coli, UniProt P07650)
Assay: In vitro thymidine phosphorylase inhibition (spectrophotometric, absorbance at 290 nm)
Assay type: biochemical, human and E. coli
Settings: for IC50: read-out: IC50 value, thymidine phosphorylase inhibitory activity
Description: The desired activity of thymidine phosphorylase under this protocol was carried out with slight modification in the method described by Krenitsky and Bush in 1979[46],[47]. Here, TP activity was determined through spectrophotometrically by absorbance at 290 nm. Although the whole reaction mixture of 200 µL have the limit of 145 µL of potassium phosphate buffer (pH 7.4, 50 mM), 30 µL of enzyme (human and E. coli) by concentration 0.05 and 0.002 U, distinectly, followed by incubation through 5 µL of test materials (0.075, 0.15, 0.3 and 0.5 mM) at 25 °C for 10 min in triplet reader. Subsequently, pre-read at 290 nm was taken to conclude the absorbance of concern substrate particles. The crave substrate “thyimidin” (20 µL, 1.5 mM), was then dissolved in the buffer (potassium phosphate), followed by instant addition to plate with constant read after every 10, 20 and 30 min in micro plate reader (spectra max, molecular devices, CA, USA). All the assay were implemented in triplicate under positive control of 7-Deazxanthine.

thymidine phosphorylase, sequence (P07650 whole entry): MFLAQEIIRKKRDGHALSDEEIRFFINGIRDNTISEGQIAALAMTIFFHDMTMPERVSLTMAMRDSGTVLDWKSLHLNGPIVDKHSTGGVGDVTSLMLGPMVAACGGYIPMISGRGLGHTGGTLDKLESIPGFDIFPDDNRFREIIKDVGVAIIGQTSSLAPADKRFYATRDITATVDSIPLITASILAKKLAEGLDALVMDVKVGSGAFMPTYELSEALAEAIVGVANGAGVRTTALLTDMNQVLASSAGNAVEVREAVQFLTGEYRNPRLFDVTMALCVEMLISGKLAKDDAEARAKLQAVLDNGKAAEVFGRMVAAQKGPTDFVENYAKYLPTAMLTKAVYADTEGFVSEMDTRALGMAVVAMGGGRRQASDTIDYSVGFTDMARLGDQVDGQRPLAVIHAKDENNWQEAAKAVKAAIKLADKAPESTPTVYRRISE

| Structure (SMILES) | IC50 [µM] | inhibitory potential compared with the standard 7-Deazaxanthine (in words) |
| --- | --- | --- |
| CC(=NNC(=O)c1ccc(-c2nnc(-c3cc4ccccc4cn3)o2)cc1)c1ccc([N+](=O)[O-])cc1 [analogue 5, 4-(5-(isoquinolin-3-yl)-1,3,4-oxadiazol-2-yl)-N’-(1-(4-nitrophenyl)ethylidene)benzohydrazide] | 14.6 ± 0.4 |  |
| COc1ccc(Br)cc1C=NNC(=O)c1ccc(-c2nnc(-c3cc4ccccc4cn3)o2)cc1 [analogue 7, N’-(5-bromo-2-methoxybenzylidene)-4-(5-(isoquinolin-3-yl)-1,3,4-oxadiazol-2-yl)benzohydrazide] | 36.7 ± 0.9 |  |
| COc1cc(C=NNC(=O)c2ccc(-c3nnc(-c4cc5ccccc5cn4)o3)cc2)ccc1O [analogue 13, N’-(4-hydroxy-3-methoxybenzylidene)-4-(5-(isoquinolin-3-yl)-1,3,4-oxadiazol-2-yl)benzohydrazide] | 6 ± 0.2 |  |
| N#Cc1ccccc1C=NNC(=O)c1ccc(-c2nnc(-c3cc4ccccc4cn3)o2)cc1 [analogue 16, N’-(2-cyanobenzylidene)-4-(5-(isoquinolin-3-yl)-1,3,4-oxadiazol-2-yl)benzohydrazide] | 18.5 ± 0.5 |  |
| O=C(NN=Cc1ccc(O)c(O)c1O)c1ccc(-c2nnc(-c3cc4ccccc4cn3)o2)cc1 [analogue 20, 4-(5-(isoquinolin-3-yl)-1,3,4-oxadiazol-2-yl)-N’-(2,3,4-trihydroxybenzylidene)benzohydrazide] | 1.1 ± 0.05 |  |
| CN(C)c1ccc(C=NNC(=O)c2ccc(-c3nnc(-c4cc5ccccc5cn4)o3)cc2)cc1 [analogue 8, N’-(4-(dimethylamino)benzylidene)-4-(5-(isoquinolin-3-yl)-1,3,4-oxadiazol-2-yl)benzohydrazide] | 18.8 ± 0.5 |  |
| N#Cc1ccc(C=NNC(=O)c2ccc(-c3nnc(-c4cc5ccccc5cn4)o3)cc2)cc1 [analogue 17, N’-(4-cyanobenzylidene)-4-(5-(isoquinolin-3-yl)-1,3,4-oxadiazol-2-yl)benzohydrazide] | 22.1 ± 0.5 |  |
| N#Cc1cccc(C=NNC(=O)c2ccc(-c3nnc(-c4cc5ccccc5cn4)o3)cc2)c1 [analogue 14, N’-(3-cyanobenzylidene)-4-(5-(isoquinolin-3-yl)-1,3,4-oxadiazol-2-yl)benzohydrazide] | 27.4 ± 0.7 |  |
| COc1cc(C=NNC(=O)c2ccc(-c3nnc(-c4cc5ccccc5cn4)o3)cc2)cc(OC)c1O [analogue 11, N’-(4-hydroxy-3,5-dimethoxybenzylidene)-4-(5-(isoquinolin-3-yl)-1,3,4-oxadiazol-2-yl)benzohydrazide] | 5.3 ± 0.2 |  |
| O=C(NN=Cc1c2ccccc2cc2ccccc12)c1ccc(-c2nnc(-c3cc4ccccc4cn3)o2)cc1 [analogue 2, N’-(anthracen-9-ylmethylene)-4-(5-(isoquinolin-3-yl)-1,3,4-oxadiazol-2-yl)benzohydrazide] | 39.4 ± 0.9 | good inhibitory activity |
| Nc1cccc(C=NNC(=O)c2ccc(-c3nnc(-c4cc5ccccc5cn4)o3)cc2)c1 [analogue 10, N’-(3-aminobenzylidene)-4-(5-(isoquinolin-3-yl)-1,3,4-oxadiazol-2-yl)benzohydrazide] | 1.1 ± 0.1 |  |
| O=C(NN=Cc1ccc(COc2ccccc2)cc1)c1ccc(-c2nnc(-c3cc4ccccc4cn3)o2)cc1 [analogue 4, 4-(5-(isoquinolin-3-yl)-1,3,4-oxadiazol-2-yl)-N’-(4-(phenoxymethyl)benzylidene)benzohydrazide] | 28.3 ± 0.5 |  |
| COc1ccc(C=NNC(=O)c2ccc(-c3nnc(-c4cc5ccccc5cn4)o3)cc2)c(OC)c1OC [analogue 19, 4-(5-(isoquinolin-3-yl)-1,3,4-oxadiazol-2-yl)-N’-(2,3,4-trimethoxybenzylidene)benzohydrazide] | 54.6 ± 1.5 | good inhibitory activity |
| COc1ccc(C=NNC(=O)c2ccc(-c3nnc(-c4cc5ccccc5cn4)o3)cc2)cc1O [analogue 12, N’-(3-hydroxy-4-methoxybenzylidene)-4-(5-(isoquinolin-3-yl)-1,3,4-oxadiazol-2-yl)benzohydrazide] | 4.6 ± 0.1 |  |
| O=C(NN=Cc1ccc(Cl)cc1Cl)c1ccc(-c2nnc(-c3cc4ccccc4cn3)o2)cc1 [analogue 3, N’-(2,4-dichlorobenzylidene)-4-(5-(isoquinolin-3-yl)-1,3,4-oxadiazol-2-yl)benzohydrazide] | 3.3 ± 0.1 |  |
| O=C(NN=Cc1ccccc1[N+](=O)[O-])c1ccc(-c2nnc(-c3cc4ccccc4cn3)o2)cc1 [analogue 1, 4-(5-(isoquinolin-3-yl)-1,3,4-oxadiazol-2-yl)-N’-(2-nitrobenzylidene)benzohydrazide] | 6.3 ± 0.2 |  |
| O=C(NN=Cc1cc(Cl)cc(Cl)c1O)c1ccc(-c2nnc(-c3cc4ccccc4cn3)o2)cc1 [analogue 9, N’-(3,5-dichloro-2-hydroxybenzylidene)-4-(5-(isoquinolin-3-yl)-1,3,4-oxadiazol-2-yl)benzohydrazide] | 2.4 ± 0.1 |  |
| O=C(NN=Cc1ccc(Cl)cc1)c1ccc(-c2nnc(-c3cc4ccccc4cn3)o2)cc1 [analogue 6, N’-(4-chlorobenzylidene)-4-(5-(isoquinolin-3-yl)-1,3,4-oxadiazol-2-yl)benzohydrazide] | 16.4 ± 0.5 |  |
| COc1cc(C=NNC(=O)c2ccc(-c3nnc(-c4cc5ccccc5cn4)o3)cc2)cc(OC)c1OC [analogue 15, 4-(5-(isoquinolin-3-yl)-1,3,4-oxadiazol-2-yl)-N’-(3,4,5-trimethoxybenzylidene)benzohydrazide] | 47.3 ± 1.2 | good inhibitory activity |
| COc1cccc(C=NNC(=O)c2ccc(-c3nnc(-c4cc5ccccc5cn4)o3)cc2)c1O [analogue 18, N’-(2-hydroxy-3-methoxybenzylidene)-4-(5-(isoquinolin-3-yl)-1,3,4-oxadiazol-2-yl)benzohydrazide] | 7.3 ± 0.2 |  |
